The test system of assay [1] is human MPNST cell line S462. Nature of the assay: S462 cell viability (CellTiter-Glo, 72 h). It is filed as cell-based. The settings on record: 10% FBS Nam-free DMEM; for rescue by nicotinamide: comparison of vacor, 3-AP, tiazofurin and 9. An excerpt:
This similarity, in addition to the scaffold's particular sensitivity to modifications around the pyridinyl ring led us to hypothesize that the activity of compounds 1 and 9 may depend on the concentration of Nam in the media. To test this hypothesis, we analyzed the activity of both compounds in media supplemented with increasing concentrations of Nam. […] Given that Nam inhibited compound activity, we considered Nam concentrations in basal culture conditions (DMEM supplemented with 10% fetal bovine serum or FBS) as compared to physiological levels. Nam levels in human serum are estimated to be in the 4 μM range.^5 In contrast, DMEM alone contains […] of Nam and the concentration in 10% FBS is expected to range between 0.574-1.56 μM.^6 To more closely reflect physiologic levels of Nam, we evaluated the activity of these compounds in cells grown in DMEM lacking Nam (Nam-free DMEM), so that the only exogenous Nam derives from 10% FBS. […] These observations indicate that the potency of these compounds is in the nanomolar range when tested in the presence of physiological levels of Nam.
We thus re-assessed the structure activity relationship of compound 21 analogs in Nam-free DMEM supplemented with or without 100 μM Nam (see appendix below: Synthesis, characterization and activity of micromolar and nanomolar active nicotinamide derivatives). […] Particularly notable, even in Nam-depleted conditions, all active analogs retained the same 3-pyridinyl ring as Nam, reinforcing the relationship between structural resemblance to Nam and compound efficacy.
In 96-well assay plates (Corning #2903), 2,000 cells were plated per well in 100 μL of medium and allowed to adhere overnight. The next day, compounds or Nam suspended in DMSO were dispensed to the assayed wells using a D300e Digital Dispenser (Tecan). All wells were normalized to 0.5% DMSO. 72 hours after incubation at 37 °C in 5% CO2, cell viability was assayed using an ATP-based luminescent viability assay, CellTiter-Glo (Promega #G8462). CellTiter-Glo substrate was mixed 1:1 with phosphate-buffered saline (PBS) supplemented with 1% Triton X-100, and 40 μL of this mixture was added to the assay wells. After the plates were shaken on a microplate shaker for 10 minutes at room temperature, luminescence was recorded using a Synergy 2 Microplate Reader or Cytation 5 plate reader (BioTek). In Prism 9 software (GraphPad), ten-point dose response curves were plotted with baseline-correction to the vehicle control well, and IC50 values were calculated by curve fitting using asymmetric (five parameter), least squares fit.

The test system of the next assay is SARM1. In words: Cytotoxicity in SARM1-knockout versus wild type cells. As to conditions: SARM1-knockout vs wild type. It is filed as cell-based. The source says: (§1) Given that vacor, 3-AP, and compound 21 are all metabolized to toxic, NAD-like derivatives through NAMPT and NMNAT, we hypothesized that their anti-cancer activity may also depend on SARM1. To test this, we compared the toxic effects of vacor, 3-AP, and 9 in either wild type cells or cells in which we used CRISPR to silence SARM1. […] These observations highlight that even though these different scaffolds are toxified through the same mechanism, the resulting metabolites may have different activities. We next co-titrated guanosine, which is known to rescue tiazofurin by bypassing IMPDH in guanylate synthesis, with each of the above small molecules. […] To test this hypothesis, we set up in vitro reactions with different combinations of 9, NAMPT and NMNAT. After incubation, metabolites were extracted, reconstituted in aqueous solution and then co-incubated with an established IMPDH2 enzyme assay.

The test system of a further assay is IMPDH. Nature of the assay: Guanosine co-titration rescue. It is filed as cell-based. As to conditions: guanosine co-titrated.
Source text: as §1

Assay [2] deals with NMNAT1 or alcohol dehydrogenase. In words: Counter screen with NMN in place of NAM. The class given is biochemical. The settings on record: role: inhibitor; 50 μM NMN substituted for NAM. The procedure:
NAMPT activity was measured using a coupled-enzyme assay previously described [Revollo, 2014]. Briefly, reactions consisting of 50 mM Tris pH 8, 0.4 mM PRPP, 2.5 mM ATP, 12 mM MgCl2, 0.02% BSA, 1 μM NAMPT, 77 nM NMNAT1, 10 mM semicarbazide, 30 μg/ml alcohol dehydrogenase were set up in a 384-well plate (50 μl/well). […] The reactions were started by addition of 50 μM NAM. Fluorescence due to NADH formation by alcohol dehydrogenase was measured in a BioTek Cytation 5 plate reader (Agilent, USA) set up for excitation at λ=340 nm and detection of emission at λ=460 nm. To counter screen for NMNAT1 or alcohol dehydrogenase inhibition, the assay was set up above but substituting 50 μM NMN (substrate for NMNAT1) for NAM. No inhibition of was observed under these conditions.

Turning to `CC(=O)c1cccnc1` [Compound 3-AP, 3-acetylpyridine, reference compound], in assay [1], the “toxicity to S462” value is recorded as “toxic to S462” and the rescue by nicotinamide entry is “rescued by nicotinamide”. For the same molecule, the “sensitivity of SARM1-knockout cells” value in the assay with SARM1 is “equally sensitive”. In addition, in the assay with IMPDH, the “guanosine rescue of toxicity” value is “no rescue”.

Take `O=C(/C=C/c1cccnc1)NCCCCC1CCN(C(=O)c2ccccc2)CC1` [FK866, reference compound]: the “inhibition in counter screen” value in assay [2] is “No inhibition”.

Regarding `O=C(NCc1cccnc1)Nc1ccc([N+](=O)[O-])cc1` [vacor, reference compound], in assay [1], the “toxicity to S462” value is listed as “toxic to S462” and the rescue by nicotinamide entry was “rescued by nicotinamide”. Moreover, the “resistance of SARM1-knockout cells” value with SARM1 is 3 fold. Moreover, the “guanosine rescue of toxicity” value with IMPDH is listed as “no rescue”.
